Measurements as given in BindingDB's records for doi:10.3109/14756366.2011.599065 (Wuhan Textile University, 2012).

Experiments:
[1] = target: Urease subunit alpha (Helicobacter pylori (strain J99 / ATCC 700824) (Campylobacter pylori J99), UniProt I0ZGT0+I0ZGT1); test: Urease Inhibition Assay; settings: pH 7.4; 4 °C
Method: (§1) Briefly, 50 mL broth cultures (2.0 × 10^8 CFU/mL) were centrifuged (5000g, 4°C)to collect the bacteria, and after washing twice with phosphate-buffered saline (pH 7.4), the H. pylori precipitation was stored at −80°C. H. pylori was returnedto room temperature, and after the addition of 3 mL of distilled water and protease inhibitors, sonication was performed for 60 s. Following centrifugation(15,000g, 4°C), the supernatant was desalted through SephadexG-25 column (PD-10 columns, Amersham-Pharmacia Biotech, Uppsala, Sweden). The resultant crude urease solution was added to an equal volume of glycerol and stored at 4°C until use in the experiment. The mixture, containing 25 μL (4U) of H. pylori urease (100 mM HEPES, pH 6.8) and 25 μL of the test compounds of various concentrations, was preincubated for 3 h at room temperature in a 96-well assay plate. After preincubation, 0.2 mL of 100 mM HEPES (pH 6.8) buffer containing 500 mM urea and 0.002% phenol red were added and incubated at 37°C.

[2] = target: Urease subunit alpha (Helicobacter pylori (strain ATCC 700392 / 26695), UniProt P69997); test: Urease Inhibition Assay; settings: pH 7.4; 4 °C
Urease subunit alpha (Helicobacter pylori (strain ATCC 700392 / 26695), UniProt P69997), sequence (P14916 whole entry): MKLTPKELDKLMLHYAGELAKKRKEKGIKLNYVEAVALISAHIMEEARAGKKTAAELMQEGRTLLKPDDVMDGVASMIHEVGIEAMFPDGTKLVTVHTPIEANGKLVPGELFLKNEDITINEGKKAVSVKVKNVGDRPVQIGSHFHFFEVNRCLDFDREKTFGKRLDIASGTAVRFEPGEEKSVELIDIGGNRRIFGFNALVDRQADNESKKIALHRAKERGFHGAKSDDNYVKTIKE
Urease subunit alpha (Helicobacter pylori (strain ATCC 700392 / 26695), UniProt P69997), sequence (P69997 whole entry): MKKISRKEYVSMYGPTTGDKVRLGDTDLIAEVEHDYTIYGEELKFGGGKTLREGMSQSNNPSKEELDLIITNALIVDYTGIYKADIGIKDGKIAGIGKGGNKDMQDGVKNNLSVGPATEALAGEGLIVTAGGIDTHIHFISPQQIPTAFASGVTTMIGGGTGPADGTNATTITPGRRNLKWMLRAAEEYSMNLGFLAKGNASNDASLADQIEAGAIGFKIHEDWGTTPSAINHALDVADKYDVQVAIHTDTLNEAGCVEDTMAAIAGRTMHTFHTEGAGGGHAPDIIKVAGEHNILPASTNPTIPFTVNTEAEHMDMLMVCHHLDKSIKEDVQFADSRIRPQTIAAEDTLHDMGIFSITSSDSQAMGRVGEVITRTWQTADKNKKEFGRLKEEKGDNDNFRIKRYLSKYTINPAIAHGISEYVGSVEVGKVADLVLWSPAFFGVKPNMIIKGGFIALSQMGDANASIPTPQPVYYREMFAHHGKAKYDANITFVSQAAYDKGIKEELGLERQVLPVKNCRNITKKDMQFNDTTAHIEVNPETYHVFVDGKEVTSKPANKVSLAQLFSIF
Method: as §1

Urease subunit alpha (Helicobacter pylori (strain J99 / ATCC 700824) (Campylobacter pylori J99), UniProt I0ZGT0+I0ZGT1), sequence (I0ZGT1 whole entry): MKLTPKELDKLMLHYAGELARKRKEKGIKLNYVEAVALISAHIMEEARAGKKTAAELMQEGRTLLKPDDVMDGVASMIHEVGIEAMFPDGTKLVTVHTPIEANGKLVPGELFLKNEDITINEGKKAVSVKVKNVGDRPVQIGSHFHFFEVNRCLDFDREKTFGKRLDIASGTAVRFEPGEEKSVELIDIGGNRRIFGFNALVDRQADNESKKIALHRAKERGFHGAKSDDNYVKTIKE
Urease subunit alpha (Helicobacter pylori (strain J99 / ATCC 700824) (Campylobacter pylori J99), UniProt I0ZGT0+I0ZGT1), sequence (I0ZGT0 whole entry): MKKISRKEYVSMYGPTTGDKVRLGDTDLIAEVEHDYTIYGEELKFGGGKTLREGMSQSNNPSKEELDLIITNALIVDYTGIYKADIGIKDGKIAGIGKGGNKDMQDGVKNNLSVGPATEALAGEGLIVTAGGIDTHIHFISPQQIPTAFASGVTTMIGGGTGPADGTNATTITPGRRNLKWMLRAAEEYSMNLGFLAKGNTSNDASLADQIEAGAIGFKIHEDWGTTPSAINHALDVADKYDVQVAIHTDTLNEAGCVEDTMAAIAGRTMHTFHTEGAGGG

IC50 [1] | IC50 [2] | Compound
> 100 µM | – | Cc1cnc(C(=O)O)cn1 [5-Methylpyrazine-2-carboxylic acid]
– | > 100 µM | Cc1ccc(C(=O)O)cc1 [SAMPL4, O2]
42.5 µM | – | CC(=O)NO [acetohydroxamic acid]
– | > 100 µM | NCc1ccccc1
